Data as given in US9029414B2, “Triterpenoid compounds and methods of use thereof” (Biotechnology Research Corporation, priority 2008, dated 2015).

Key:
[1] = system: MOG-induced IFN-γ in primary splenocytes; experiment: IFN-γ Quantikine ELISA in primary splenocytes of EAE mice; type: cell-based; settings: for Reduction in IFN-γ, % Reduction: splenocytes of EAE mice dosed 100 mg/kg orally daily vs MOG + Vehicle; for IFN-γ, Average / level of IFN-γ: splenocytes of EAE mice dosed 100 mg/kg orally daily, exogenous MOG; for decrease of IFN-γ in response to exogenous compound: splenocytes of compound-treated EAE mice (100 mg/kg); for decrease of IFN-γ in response to exogenous compound / reduction in the amount of MOG-induced IFN-γ: exogenous compound 30 μM, MOG 25 μg/mL; for reduction in the amount of MOG-induced IFN-γ: splenocytes of vehicle-treated EAE mice, 48 hrs
Description: On day 21, EAE mice were sacrificed by cervical dislocation and spleens were removed aseptically. The removed spleens were then cut with sterilized scissors and strained through […] mesh (BD Bioscience) with a plunger of 5 mL syringe (BD Bioscience) in 9 mL of RPMI 1640 (Invitrogen) with 100 U/mL penicillin and 100 μg/mL streptomycin (Sigma). The cell mixture was then added to 9 mL of Lympholyte (Cedarlane Laboratories) for gradient separation of splenocytes from red bloods cells by centrifugation at 1500 g for 20 min. After the centrifugation, the lympholyte layer containing splenocytes were carefully removed and washed with 10 mL of RPMI 1640 at 800 g for 10 min for three times. The isolated splenocytes were seeded onto different plate format and cultured with RPMI 1640 medium (Invitrogen) supplement with 10% heat inactivated fetal bovine serum (Invitrogen) and 100 U/mL penicillin and 100 μg/mL streptomycin at 37° C. CO2 incubator.
Splenocytes from EAE mice were cultured at the density of 1×10^6 cells in 12-well plates (Falcon) in the absence or presence of the MOG peptide (25 μg/mL) (Hooke Laboratories), DA001 and DA021 (30 μM) with RPMI 1640 medium (Invitrogen) supplement with 10% heat inactivated fetal bovine serum (Invitrogen) and 100 U/mL penicillin and 100 μg/mL streptomycin (Sigma) for 48 h. After 48 h, the supernatants were collected by pelleting the cells at 300 g for 10 min at 4° C. 50 μL of the each sample was added to the microtiter plate provided by the manufacturer of the Quantikine ELISA assay kit (R and D systems). Additional 50 μL of assay diluents buffer was added and incubated at room temperature for 2 h. After the incubation, the supernatants were discarded and the cells were washed with wash buffer. 100 μL of conjugate was added to the cells and the plate was again incubated at room temperature for 2 h. After another washing, 100 μL of substrate solution was added followed by 30 min incubation at room temperature. Subsequently, 100 μL of stop solution was added to each well and the plate was read in 450 nm wavelength on a microplate reader (Dynex Revelation 2.2).
Cytokines are believed to be one of the key signaling molecules in disease progression of EAE. Autoimmune response observed in the EAE model is believed to be mediated via the Th1 pathway, and interferon-gamma (IFN-γ) is the hallmark cytokine of the Th1 immune response. Therefore, it is critical to examine the efficacy of the compounds in modulating the levels of cytokines in EAE mice. To this end, splenocytes isolated from the spleens of EAE mice were cultured and treated with exogenous MOG peptide and the amount of IFN-γ was measured in response to exogenous DA001 and DA021 (30 μM) treatments using ELISA.
(§1) The cells were cultured in RPMI 1640 medium supplement with 10% heat inactivated fetal bovine serum and penicillin/streptomycin, in the absence or presence of MOG (25 μg/mL, Ex) with or without DA001 or DA021 (30 μM, Ex). Supernatants were collected after 48 hrs and IFN-γ Quantikine ELISA assay kit (R and D systems) was used according to the manufacturer's protocol. The amount of IFN-γ was calculated based on the standard curve established during the assay. The graph presented is the composite of two separate trials with duplicate samples in each trial. ***=p≦0.0001, **=p≦0.001, *=p≦0.01.
as §1, with “Cells” for “The cells”, “μg/mL)” for “μg/mL, Ex)”, “DA001” for “DA001 or DA021”, “μM).” for “μM, Ex).”, “***=p≦0.0001. […]” for “***=p≦0.0001, **=p≦0.001, *=p≦0.01.”

cortical neurons = experiment: Cortical neuron survival assay against glutamate excitotoxicity (LDH); type: cell-based, Sprague-Dawley rats; settings: 30 μM 24 hrs, glutamate 10-200 μM 20 min; at high concentrations of glutamate
Description: Hippocampal neurons/cortical neurons were prepared from embryonic day 18 Sprague-Dawley rats. After the cortices had been removed from the brain, isolated cells were plated onto Poly d-Lysine (PDL) (P0899, Sigma)-coated 48 well plates (150687, NUNC) at a density of 2×10^5 cell per well using Neurobasal Medium (NB) (21103-049, Gibco) with B27 supplement (17504-044, Gibco), penicillin/streptomycin (15140, Gibco) and 1 mM L-glutamine (25030, Gibco). The cell culture was incubated at 37° C. in a humidified atmosphere of 5% CO2 in air. Medium was changed to growth medium (Neurobasal Medium with penicillin/streptomycin and B27 supplement) after 3 hours. Half medium was changed with growth medium every 2-3 days to maintain the cells until day 10 in vitro (DIV 10). Serial dilutions of samples were prepared in growth medium and DMSO was used as vehicle control. For pre-treating assay, half of the medium was removed from wells, and equal amount of diluted samples were replaced. Cells were then incubated for 2 hours at 37° C. in a humidified atmosphere of 5% CO2 in air. […] Afterwards, cells were incubated in growth medium for 18-24 hours and detected with Cytotoxicity Detection Kit (1644793, Roche).
Cortical neurons were pre-treated with DA021 or DA034 and subsequently subjected to varying concentrations of glutamate (10-200 μM). […] LDH release into the medium was then measured.

SMILES | Reduction in IFN-γ, % Reduction [1] [%] | IFN-γ, Average [1] | level of IFN-γ [1] [pg/mL] | decrease of IFN-γ in response to exogenous compound [1] [%] | reduction in the amount of MOG-induced IFN-γ [1] [%] | cell death (LDH release) vs DMSO control (cortical neurons)
C=C(C)[C@@H]1CC[C@]2(/C=N/O)CC[C@]3(C)C(CCC4[C@@]5(C)CCC(=O)[C@@](C)(CO)[C@@H]5CC[C@]43C)C12 (stereo partly drawn) [DA021] | 78.3 | 135.3 ± 12.3 ρg/mL | 135 | 78 | 62 | significant reduction in cell death
CC(=O)OC[C@]12CC[C@@H](C3(C)CO3)C1C1CCC3[C@@]4(C)CC[C@H](O)[C@@](C)(CO)[C@@H]4CC[C@@]3(C)[C@]1(C)CC2 (stereo partly drawn) [DA034] | – | – | – | – | – | significant reduction in cell death
C=C(C)[C@@H]1CC[C@]2(C(=O)O)CC[C@]3(C)C(CC[C@@H]4[C@@]5(C)CC[C@H](O[C@@H]6OC[C@H](O)[C@H](O)[C@H]6O[C@@H]6O[C@@H](C)[C@H](O)[C@@H](O)[C@H]6O)[C@@](C)(CO)[C@@H]5CC[C@]43C)[C@@H]12 (stereo partly drawn) [DA001, 3-O-[α-L-rhamnopyranosyl-(1→2)-α-L-arabinopyranosyl]-3,23-dihydroxy-20(29)-lupen-28-oic acid] | 83.1 | 105.7 ± 5.1 ρg/mL | 105 | 91 | 71 | –
